Experimental data as given in patent US12584101B2, “Compositions and method of use for H5 competent Bifidobacterium longum subsp. Infantis” (INFINANT HEALTH, INC., priority 2018, dated 2026).

Test system: Blon_0881 and Blon_2343
Assay: qPCR gene expression of Blon_0881 and Blon_2343 relative to Blon_0393 (activation)
Type: cell-based, B. infantis
Conditions: 5, 10, 15 and 20 g/L of NAG, rest glucose to 20 g/L; stationary phase
Protocol: In some embodiments, gene activation relates to Blon_0881 and Blon_2343 and their expression is greater than 1; that is, when the delta delta cycle threshold (2^ΔΔCt) is greater than 1, DDCT is calculated using Blon_0393, or another constitutively expressed gene as a reference. The result (activation) is the fold change (2^ΔΔCt>1) of gene expression. Determined based on the double delta CT (2^ΔΔCt) method (Livak K and Schmittgen T. (2001) Analysis of relative gene expression data using real-time quantitative PCR and the 2(−Delta Delta C(T)) Method. Methods: 25: 402-8). In other embodiments, other genes from Table 1 are used in addition to Blon_0881 and Blon_2343.
A series of fermentations were conducted where B. infantis was grown on various concentrations of NAG and glucose. MRS broth was prepared without a carbon source. The carbon source was added at 2% of the media or 20 g/L. The carbon source was varied according to Table 5. The cells were grown to the stationary phase and spun down. The supernatant was removed and the cells lysed. RNA was extracted. The cells were tested for increase in gene expression of Blon_0881 and Blon_2343 by qPCR relative to Blon_0393. The 2^ΔΔCt was greater than 1 confirming activation for 5, 10, 15 and 20 g/L of NAG. […]

N-acetyl-glucosamine/galactosamine (NAG)
2^ΔΔCt of Blon_0881 and Blon_2343 relative to Blon_0393: greater than 1
